Assay [1] in a line: Inhibition of Bacillus anthracis Protective antigen-mediated cytotoxicity in RAW264.7 cells compound co-treated for 5 hrs with antigen by MTT assay in presence of lethal factor.
The nature of assay [2]: Inhibition of Bacillus anthracis Protective antigen-mediated cytotoxicity in HT1080 cells compound co-treated for 5 hrs with antigen measured after 48 hrs by MTT assay in presence of FP59.
The nature of assay [3]: Inhibition of Bacillus anthracis Protective antigen-mediated cytotoxicity in RAW264.7 cells compound co-treated for 5 hrs with antigen measured after 48 hrs by MTT assay in presence of FP59.
Assay [4] can be described thus: Inhibition of matrix metalloprotease activated Bacillus anthracis Protective antigen-mediated cytotoxicity in HT1080 cells compound co-treated for 5 hrs with antigen measured after 48 hrs by MTT assay in presence of FP59.

Structures are written as SMILES.

On to `Oc1ccccc1/C=N/c1ccc(Cc2ccc(/N=C/c3ccccc3O)c(O)c2)cc1O`, for which the EC50 stood at 3 µM in assay [1], 1 µM in assay [2], 1 µM in assay [3] and 1 µM in assay [4].

As for `NC(=O)c1ccccc1NC(=O)c1ccc(C(=O)Nc2ccccc2C(N)=O)cc1`, the EC50 in assay [1] was found to be 3 µM; in assay [2] it was 1 µM; in assay [3], 1 µM; in assay [4] it was 1 µM.

For the origin of these results see BindingDB's records for doi:10.1021/jm300804e (National Institute of Allergy and Infectious Diseases, 2012).
